Legend:
[1] = tested on: patients with migraine; test: Study 201 (BHV3000-201, NCT03266588): open label long-term safety study, rimegepant 75 mg oral tablet; type: in vivo, human
Method: Clinical Trial-BHV3000-201: Open Label Safety Study in Acute Treatment of Migraine (ClinicalTrials.gov A phase 2⁄3 clinical study is conducted with about 2000 participants, as follows. The purpose of this study is to evaluate safety and tolerability of BHV3000 (rimegepant). Study Design • Study Type: Interventional (Clinical Trial) • Estimated Enrollment: 2000 participants • Intervention Model: Single Group Assignment • Masking: None (Open Label) • Primary Purpose: Treatment • Official Title: A Multicenter, Open Label Long-Term Safety Study of BHV3000 in the Acute Treatment of Migraine • Actual Study Start Date: Aug. 30, 2017 • Estimated Primary Completion Date: July 2019 • Estimated Study Completion Date: July 2019 Arms and Interventions Outcome Measures Primary Outcome Measures: 1. To assess the safety and tolerability of rimegepant (BHV-3000) by measuring the frequency and severity of adverse events and discontinuations due to adverse events [Time Frame: 52 weeks] Number of subjects with treatment-emergent adverse events as assessed through laboratory tests, ECGs, physical exam findings (safety and tolerability) Secondary Outcome Measures: 1. ALT or […] with total bilirubin>2×ULN [Time Frame: 52 weeks] elevated liver function tests 2. hepatic related adverse events and hepatic related adverse events that lead to discontinuation [Time Frame: 52 weeks] adverse events related to liver Results from the clinical trial described in Example 10 are summarized as follows. […] Patients were allowed to treat migraine attacks of all severities (mild to severe) up to once daily for a full year. The initial results for hepatic safety and tolerability of rimegepant 75 mg in study participants is based upon review of both adverse events and regularly scheduled liver function tests. Interim hepatic data were reviewed by an external and independent panel of liver experts. […] In the aggregate, it was noted that compared to migraine trials with drugs other than rimegepant, there was a very low incidence of overall elevations of liver function test abnormalities in rimegepant treated patients (1.0% incidence of serum ALT or […]). Subjects will continue to participate in Study 201 with additional data analyses to be submitted in the NDA and required 120-day safety updates.

[2] = tested on: subjects with Acute Migraines; test: Pooled liver function test profile, Study 301 and Study 302; type: in vivo, human
Method: (§1) In a double-blind, randomized, placebo-controlled, multicenter study (Study 301, NCT03235479) adults≥18 years of age with at least a 1-year history of ICHD 3-beta migraine were eligible to participate. Following a 3- to 28-day screening period, subjects were randomized to receive rimegepant 75 mg or matching placebo and instructed to treat a single migraine attack with 1 dose of the blinded study drug (rimegepant or placebo) when headache pain reached moderate or severe intensity. The coprimary endpoints were pain freedom at 2 hours postdose and freedom from the most bothersome symptom (MBS) at 2 hours postdose. Safety assessments included adverse events (AEs), ECGs, vital signs, physical measurements, and routine laboratory tests, including assessment of liver function. Unless stated otherwise, values presented are mean±SD.
as §1, with “302, NCT03237845)” for “301, NCT03235479)”

[3] = pooled Study 301 and 302, n = 1089

## N[C@@H]1c2cccnc2[C@H](OC(=O)N2CCC(n3c(=O)[nH]c4ncccc43)CC2)CC[C@H]1c1cccc(F)c1F [Rimegepant, [(5S,6S,9R)-5-amino-6-(2,3-difluorophenyl)-6,7,8,9-tetrahydro-5H-cyclohepta[b]pyridin-9-yl] 4-(2-oxo-3H-imidazo[4,5-b]pyridin-1-yl)piperidine-1-carboxylate]
[1]; Enrollment Group (2-8)
  >=20.0% decrease in migraines per month, number of subjects: 353
  >=20.0% decrease in migraines per month, percent of subjects: 35.2%
  >=25.0% decrease in migraines per month, number of subjects: 308
  >=25.0% decrease in migraines per month, percent of subjects: 30.7%
  >=30.0% decrease in migraines per month, number of subjects: 268
  >=30.0% decrease in migraines per month, percent of subjects: 26.7%
  >=35.0% decrease in migraines per month, number of subjects: 224
  >=35.0% decrease in migraines per month, percent of subjects: 22.3%
  >=40.0% decrease in migraines per month, number of subjects: 181
  >=40.0% decrease in migraines per month, percent of subjects: 18.0%
  >=45.0% decrease in migraines per month, number of subjects: 144
  >=45.0% decrease in migraines per month, percent of subjects: 14.3%
  >=50.0% decrease in migraines per month, number of subjects: 113
  >=50.0% decrease in migraines per month, percent of subjects: 11.3%
[1]; Enrollment Group (4-14), n 269
  >=20.0% decrease in migraines per month, number of subjects: 159
  >=20.0% decrease in migraines per month, percent of subjects: 59.1%
  >=25.0% decrease in migraines per month, number of subjects: 144
  >=25.0% decrease in migraines per month, percent of subjects: 53.5%
  >=30.0% decrease in migraines per month, number of subjects: 130
  >=30.0% decrease in migraines per month, percent of subjects: 48.3%
  >=35.0% decrease in migraines per month, number of subjects: 117
  >=35.0% decrease in migraines per month, percent of subjects: 43.5%
  >=40.0% decrease in migraines per month, number of subjects: 100
  >=40.0% decrease in migraines per month, percent of subjects: 37.2%
  >=45.0% decrease in migraines per month, number of subjects: 83
  >=45.0% decrease in migraines per month, percent of subjects: 30.9%
  >=50.0% decrease in migraines per month, number of subjects: 67
  >=50.0% decrease in migraines per month, percent of subjects: 24.9%
[1]; Enrollment Group (9-14), n 458
  >=20.0% decrease in migraines per month, number of subjects: 171
  >=20.0% decrease in migraines per month, percent of subjects: 37.3%
  >=25.0% decrease in migraines per month, number of subjects: 150
  >=25.0% decrease in migraines per month, percent of subjects: 32.8%
  >=30.0% decrease in migraines per month, number of subjects: 125
  >=30.0% decrease in migraines per month, percent of subjects: 27.3%
  >=35.0% decrease in migraines per month, number of subjects: 101
  >=35.0% decrease in migraines per month, percent of subjects: 22.1%
  >=40.0% decrease in migraines per month, number of subjects: 81
  >=40.0% decrease in migraines per month, percent of subjects: 17.7%
  >=45.0% decrease in migraines per month, number of subjects: 60
  >=45.0% decrease in migraines per month, percent of subjects: 13.1%
  >=50.0% decrease in migraines per month, number of subjects: 46
  >=50.0% decrease in migraines per month, percent of subjects: 10.0%
[1]; Overall, of 1731 subjects
  >=20.0% decrease (reduction in headache days per month of at least 20%), number of subjects: 683
  >=20.0% decrease (reduction in headache days per month of at least 20%), percent of subjects: 39.5%
  >=25.0% decrease (reduction in headache days per month of at least 25%), number of subjects: 602
  >=25.0% decrease (reduction in headache days per month of at least 25%), percent of subjects: 34.8%
  >=30.0% decrease (reduction in headache days per month of at least 30%), number of subjects: 523
  >=30.0% decrease (reduction in headache days per month of at least 30%), percent of subjects: 30.2%
  >=35.0% decrease (reduction in headache days per month of at least 35%), number of subjects: 442
  >=35.0% decrease (reduction in headache days per month of at least 35%), percent of subjects: 25.5%
  >=40.0% decrease (reduction in headache days per month of at least 40%), number of subjects: 362
  >=40.0% decrease (reduction in headache days per month of at least 40%), percent of subjects: 20.9%
  >=45.0% decrease (reduction in headache days per month of at least 45%), number of subjects: 287
  >=45.0% decrease (reduction in headache days per month of at least 45%), percent of subjects: 16.6%
  >=50.0% decrease (reduction in headache days per month of at least 50%), number of subjects: 226
  >=50.0% decrease (reduction in headache days per month of at least 50%), percent of subjects: 13.1%
[1]; Study 201
  headache days per month, treatment phase versus observation phase: fewer headache days per month
[1]; Study 201 interim analysis
  Hy's Law cases: no Hy's Law cases
  liver cases assessed as probably related to study drug: no liver cases
[1]; Study 201 interim analysis, 75 mg up to once daily
  incidence of serum ALT or AST >3×ULN: 1.0%
[1]; Study 201 interim, including near-daily dosing (≥15 doses/month)
  liver safety signal: no liver safety signal detected
[2]; Study 301 and Study 302
  Pooled Liver Function Test profile versus placebo: Rimegepant was Similar to Placebo in Both Studies
[2]; across both Studies 301 and 302
  bilirubin elevations > 2 × ULN: *No bilirubin elevations > 2 × ULN across both Studies 301 and 302
[2]; [3]
  ALT >3 × ULN, number of subjects: 1
  ALT >3 × ULN, percent of subjects: 0.1%
  ALT >5 × ULN, number of subjects: 0
  ALT >10 × ULN, number of subjects: 0
  ALT >20 × ULN, number of subjects: 0
  ALT >ULN, number of subjects: 22
  ALT >ULN, percent of subjects: 2.0%
  AST >3 × ULN, number of subjects: 1
  AST >3 × ULN, percent of subjects: 0.1%
  AST >5 × ULN, number of subjects: 0
  AST >10 × ULN, number of subjects: 0
  AST >20 × ULN, number of subjects: 0
  AST >ULN, number of subjects: 12
  AST >ULN, percent of subjects: 1.1%

From patent US11083724B2, “Rimegepant for CGRP related disorders” (Biohaven Pharmaceutical Holding Company Ltd., priority 2018, dated 2021)
